For one data set, the system named is Phytophthora infestans. The format is in vivo. The conditions noted are these: young tomato plants, sprayed, active ingredient concentration 100 ppm, inoculated 1 day after treatment, evaluation 7 days after inoculation; 100% = no infection.
A further data set concerns Plasmopara viticola. Nature of the data set: Plasmopara test (grapevine)/protective. The format is in vivo. Particulars: young grapevine plants, sprayed, active ingredient concentration 10 ppm, evaluation 6 days after inoculation; 100% = no infection. As to the method: Plasmopara Test (Grapevine)/Protective
• Solvent: 24.5 parts by weight of acetone • 24.5 parts by weight of dimethylacetamide • Emulsifier: 1 part by weight of alkylaryl polyglycol ether
[To produce an appropriate active ingredient formulation, 1 part by weight of active ingredient is mixed with the specified amounts of solvent and emulsifier, and the concentrate is diluted with water to the desired concentration.
To test for protective efficacy, young plants are sprayed with the active ingredient formulation at the stated application rate. After the spray coating has dried on, the plants are inoculated with an aqueous spore suspension of Plasmopara viticola and then remain in an incubation cabin at approx. 20° C. and 100% relative air humidity for 1 day. Subsequently, the plants are placed in a greenhouse at approx. 21° C. and approx. 90% air humidity for 4 days. The plants are then moistened and placed in an incubation cabin for 1 day.
Evaluation follows 6 days after the inoculation. 0% means an efficacy which corresponds to that of the control, whereas an efficacy of 100% means that no infection is observed.
In this test, the following inventive compounds show, at an active ingredient concentration of 10 ppm, an efficacy of 70% or more: […]

A further data set relates to Peronospora brassicae. As to the kind of experiment: Peronospora test (oilseed rape seeds)/seed treatment. The data set is classed as in vivo. The conditions noted are these: dose 50 g/dt, 14-day-old plants inoculated, incubated 7 days, infected leaf area, 100% = no disease. As to the method: Peronospora Test (Oilseed Rape Seeds)/Seed Treatment
The test was conducted under greenhouse conditions.
Oilseed rape seeds treated with an inventive active compound or a combination of inventive active compounds dissolved in N-methyl-2-pyrrolidone and diluted with water to the desired dose were sown in 6*6 cm vessels. The vessels contain 4 cm of a 1:1 mixture of steam-treated field soil and sand. The plants grew at 10° C.
14-day-old plants were inoculated with an aqueous spore suspension of Peronospora brassicae. The vessels containing the plants were incubated in a greenhouse at a temperature of 15° C. and a relative air humidity of 100% for 7 days.
The assessment of the test included the evaluation of the infected leaf area per plant. 0% means an efficiency corresponding to that of the control, while an efficiency of 100% means that no disease is observed.

The conditions of data set [1]: pH 7.8.

Data on 13 molecules can be found in patent US10499641B2 (priority 2010, dated 2019).

Usually chromatographic logP stands for a lipophilicity value derived from retention on a column. A lower chromatographic logP goes with a more hydrophilic compound.

Regarding `CCS(=O)(=O)Oc1ccccc1C1CC(c2csc(C3CCN(C(=O)Cn4nc(C(F)F)cc4C(F)F)CC3)n2)=NO1` (stereo not shown) [Example I-65], the Eff. % came to 100% with Phytophthora infestans, 100% in the data set with Plasmopara viticola and 90% in the data set with Peronospora brassicae.
For `Cc1cc(C(F)(F)F)nn1CC(=O)N1CCC(c2nc(C3=NOC(c4ccccc4C=NO)C3)cs2)CC1` (mixture of isomers) [Example I-38], the Eff. % is reported as 100% with Phytophthora infestans, 95% in the data set with Plasmopara viticola and 86% with Peronospora brassicae.
On the same counts, the results for `Cc1cc(C(F)(F)F)nn1CC(=O)N1CCC(c2nc(C3=NOC(c4ccccc4OS(=O)(=O)C4CC4)C3)cs2)CC1` (stereo not shown) [Example I-61] are 89%, 100% and 90%.
`CC(=NO)c1ccccc1C1CC(c2csc(C3CCN(C(=O)Cn4nc(C(F)(F)F)cc4C)CC3)n2)=NO1` (stereo not shown) [Example I-40, 1-[4-(4-{5-[2-(N-Hydroxyethanimidoyl)phenyl]-4,5-dihydro-1,2-oxazol-3-yl}-1,3-thiazol-2-yl)piperidin-1-yl]-2-[5-methyl-3-(trifluoromethyl)-1H-pyrazol-1-yl]ethanone]: the Eff. % in the data set on Phytophthora infestans came out at 100%; in the data set with Plasmopara viticola, 90%. The same molecule registered a chromatographic logP in “physchem” (pH 2.7) of 2.92.
In turn, `CC(C)(C)OC(=O)Nc1ccc(C2CC(c3csc(C4CCN(C(=O)Cn5nc(C(F)F)cc5C(F)F)CC4)n3)=NO2)cc1` (stereo not shown) [Example I-17, tert-Butyl (4-{3-[2-(1-{[3,5-bis(difluoromethyl)-1H-pyrazol-1-yl]acetyl}piperidin-4-yl)-1,3-thiazol-4-yl]-4,5-dihydro-1,2-oxazol-5-yl}phenyl)carbamate] had an Eff. % in the data set on Phytophthora infestans of 100%. In addition, the “logp [b]” value in data set [1] is 3.46[b].
Regarding `Cc1cc(C(F)(F)F)nn1CC(=O)N1CCC(c2nc(C3=NOC(c4ccccc4OS(C)(=O)=O)C3)cs2)CC1` (stereo not shown) [Example I-62], the Eff. % with Phytophthora infestans is 89%; with Plasmopara viticola, 100%; in the data set with Peronospora brassicae, 90%.
On the same counts, the results for `CS(=O)(=O)Oc1ccccc1C1CC(c2csc(C3CCN(C(=O)Cn4nc(C(F)F)cc4C(F)F)CC3)n2)=NO1` (stereo not shown) [Example I-124] are 100%, 100% and 100%.
Regarding `C[Si](C)(C)C#CCOc1ccccc1C1CC(c2csc(C3CCN(C(=O)Cn4nc(C(F)F)cc4C(F)F)CC3)n2)=NO1` (stereo not shown) [Example I-1, 2-[3,5-Bis(difluoromethyl)-1H-pyrazol-1-yl]-1-(4-{4-[5-(2-{[3-(trimethylsilyl)prop-2-yn-1-yl]oxy}phenyl)-4,5-dihydro-1,2-oxazol-3-yl]-1,3-thiazol-2-yl]piperidin-1-yl}ethanone], the “logp [b]” value in data set [1] is 4.58[b].
With `CON=Cc1cccc(F)c1C1CC(c2csc(C3CCN(C(=O)Cn4nc(C(F)F)cc4C(F)F)CC3)n2)=NO1` (stereo not shown) [Example I-60], the results for the Eff. % in the data set with Phytophthora infestans, in the data set with Plasmopara viticola and in the data set on Peronospora brassicae were 84%, 100% and 95%, respectively.
Molecule `O=C(Cn1nc(C(F)F)cc1C(F)F)N1CCC(c2nc(C3=NOC(c4ccccc4OCC#Cc4cccc5ccccc45)C3)cs2)CC1` (stereo not shown) [Example I-2, 2-[3,5-Bis(difluoromethyl)-1H-pyrazol-1-yl]-1-(4-{4-[5-(2-{[3-(1-naphthyl)prop-2-yn-1-yl]oxy}phenyl)-4,5-dihydro-1,2-oxazol-3-yl]-1,3-thiazol-2-yl}piperidin-1-yl)ethanone] displayed an Eff. % in the data set on Phytophthora infestans of 100%. Moreover, the chromatographic logP was determined as 4.81 in “physchem” (pH 2.7) and 4.68 in “physchem” (pH 7.8).
For the molecule `O=C(Cn1nc(C(F)F)cc1C(F)F)N1CCC(c2nc(C3=NOC(c4ccccc4C=NO)C3)cs2)CC1` (mixture of isomers) [Example I-4], the Eff. % was found to be 100% in the data set on Phytophthora infestans, 100% in the data set with Plasmopara viticola and 92% in the data set on Peronospora brassicae.
As for `O=C(Cn1nc(C(F)F)cc1C(F)F)N1CCC(c2nc(C3=NOC(c4cccc(C=NO)c4)C3)cs2)CC1` (mixture of isomers) [Example I-22], the Eff. % in the data set with Phytophthora infestans and in the data set on Plasmopara viticola was 100% throughout.
`O=C(Oc1ccccc1C1CC(c2csc(C3CCN(C(=O)Cn4nc(C(F)F)cc4C(F)F)CC3)n2)=NO1)c1ccccc1F` (stereo not shown) [Example I-130]: the Eff. % with Phytophthora infestans and in the data set with Plasmopara viticola was 100% throughout.
